Experimental data taken from ChEMBL document CHEMBL5550184, “Structure-activity relationships of middle-size cyclic peptides, KRAS inhibitors derived from an mRNA display” (Bioorg Med Chem, 2024).
Starred links: 1 amine or outer side, 2 acyl side, 3 side chain; linkers in the order of their positions; H or OH if unused. Positions of bridges follow the written chain, without caps; N, C: chain ends. Non-standard residues stand in square brackets, D forms with d. Residues, ends and D or L forms follow the SMILES beside them. *: point of attachment. hPhe(3-Cl-4-CF3) = N[C@@H](CCc1ccc(C(F)(F)F)c(Cl)c1)C(=O)O; X2 = CN([C@@H](CC(=O)[*:2])C(=O)n1cccc1)[*:1]; NMePhe(4-Cl) = CN[C@@H](Cc1ccc(Cl)cc1)C(=O)O; X1 = O=C([C@H](CC(=O)[*:2])N[*:1])n1cccc1; NMeAla(cPent) = CN[C@@H](CC1CCCC1)C(=O)O; Phe(3-Cl) = N[C@@H](Cc1cccc(Cl)c1)C(=O)O; NMeGly(cPent) = CN[C@H](C(=O)O)C1CCCC1; NMeAla(cPr) = CN[C@@H](CC1CC1)C(=O)O; NMeGly(cBu) = CN[C@H](C(=O)O)C1CCC1; NMeCha = CN[C@@H](CC1CCCCC1)C(=O)O; NMeCba = CN[C@@H](CC1CCC1)C(=O)O; NMeChg = CN[C@H](C(=O)O)C1CCCCC1; NMeF = CN[C@@H](Cc1ccccc1)C(=O)O; NMeI = CC[C@H](C)[C@H](NC)C(=O)O; NMeD = CN[C@@H](CC(=O)O)C(=O)O; NMeL = CN[C@@H](CC(C)C)C(=O)O; NMeNle = CCCC[C@H](NC)C(=O)O; NMeNva = CCC[C@H](NC)C(=O)O; NMeV = CN[C@H](C(=O)O)C(C)C; NMeA = CN[C@@H](C)C(=O)O; Piperidide = C1CCN(*)CC1; Pyrrolidide = C1CCN(*)C1; Ac5c = NC1(C(=O)O)CCCC1; Aze = O=C(O)[C@@H]1CCN1; Sar = CNCC(=O)O

Key:
[1] = Inhibition of biotin-tagged KRAS G12D mutant (unknown origin) to recombinant His-tagged SOS1 (unknown origin) protein-protein interaction incubated for 120 mins by AlphaLISA method; set-up: species or system Homo sapiens
[2] = tested on: ASPC1; assay: Cytotoxicity against human AsPC1 cells assessed as reduction in cell viability incubated for 7 days by CellTiterGlo Luminescent Cell Viability Assay; type: functional, cell-based; conditions: ASPC1, 168 h
[3] = Apparent permeability in human Caco-2 cells incubated for 180 mins by LC-MS/MS method; type: ADME, cell-based

SMILES	IC50 [1]	IC50 [2]	Papp at 3 h [3]
CC[C@H](C)[C@@H]1NC(=O)[C@H](C)N(C)C(=O)C[C@@H](C(=O)N2CCCC2)NC(=O)[C@H](C(C)C)N(C)C(=O)[C@H](Cc2ccccc2)N(C)C(=O)[C@H](Cc2c[nH]c3ccccc23)NC(=O)[C@H](Cc2cccc(Cl)c2)NC(=O)CN(C)C(=O)[C@H](Cc2ccc(Cl)cc2)N(C)C(=O)CN(C)C(=O)CN(C)C1=O ([NMeA]I[Sar][Sar][NMePhe(4-Cl)][Sar][Phe(3-Cl)]W[NMeF][NMeV]D-Pyrrolidide; lactam N-11)	54 nM	–	–
CC[C@H](C)[C@@H]1NC(=O)[C@H](CC2CCCC2)N(C)C(=O)C[C@@H](C(=O)N2CCCCC2)N(C)C(=O)[C@H](C(C)C)N(C)C(=O)C2(CCCC2)NC(=O)[C@@H]2CCCN2C(=O)[C@H](CCc2ccc(C(F)(F)F)c(Cl)c2)NC(=O)CN(C)C(=O)[C@H](CC2CCCCC2)N(C)C(=O)CN(C)C(=O)CN(C)C1=O ([NMeAla(cPent)]I[Sar][Sar][NMeCha][Sar][hPhe(3-Cl-4-CF3)]P[Ac5c][NMeV][NMeD]-Piperidide; lactam N-11)	13 nM	730 nM	0.41 ×10⁻⁶ cm/s
CC[C@H](C)[C@@H]1NC(=O)[C@H](CC2CC2)N(C)C(=O)C[C@@H](C(=O)N2CCCCC2)N(C)C(=O)[C@H](C(C)C)N(C)C(=O)C2(CCCC2)NC(=O)[C@@H]2CCCN2C(=O)[C@H](CCc2ccc(C(F)(F)F)c(Cl)c2)NC(=O)CN(C)C(=O)[C@H](CC2CCCCC2)N(C)C(=O)CN(C)C(=O)CN(C)C1=O ([NMeAla(cPr)]I[Sar][Sar][NMeCha][Sar][hPhe(3-Cl-4-CF3)]P[Ac5c][NMeV][NMeD]-Piperidide; lactam N-11)	10 nM	650 nM	0.34 ×10⁻⁶ cm/s
CC[C@H](C)[C@@H]1NC(=O)[C@H](CC2CCC2)N(C)C(=O)C[C@@H](C(=O)N2CCCCC2)N(C)C(=O)[C@H](C(C)C)N(C)C(=O)C2(CCCC2)NC(=O)[C@@H]2CCCN2C(=O)[C@H](CCc2ccc(C(F)(F)F)c(Cl)c2)NC(=O)CN(C)C(=O)[C@H](CC2CCCCC2)N(C)C(=O)CN(C)C(=O)CN(C)C1=O ([NMeCba]I[Sar][Sar][NMeCha][Sar][hPhe(3-Cl-4-CF3)]P[Ac5c][NMeV][NMeD]-Piperidide; lactam N-11)	10 nM	790 nM	0.41 ×10⁻⁶ cm/s
CC[C@H](C)[C@@H]1NC(=O)[C@H](CC2CCCCC2)N(C)C(=O)C[C@@H](C(=O)N2CCCCC2)N(C)C(=O)[C@H](C(C)C)N(C)C(=O)C2(CCCC2)NC(=O)[C@@H]2CCCN2C(=O)[C@H](CCc2ccc(C(F)(F)F)c(Cl)c2)NC(=O)CN(C)C(=O)[C@H](CC2CCCCC2)N(C)C(=O)CN(C)C(=O)CN(C)C1=O ([NMeCha]I[Sar][Sar][NMeCha][Sar][hPhe(3-Cl-4-CF3)]P[Ac5c][NMeV][NMeD]-Piperidide; lactam N-11)	25 nM	950 nM	0.33 ×10⁻⁶ cm/s
CC[C@H](C)[C@@H]1NC(=O)[C@H](C2CCCCC2)N(C)C(=O)C[C@@H](C(=O)N2CCCCC2)N(C)C(=O)[C@H](C(C)C)N(C)C(=O)C2(CCCC2)NC(=O)[C@@H]2CCCN2C(=O)[C@H](CCc2ccc(C(F)(F)F)c(Cl)c2)NC(=O)CN(C)C(=O)[C@H](CC2CCCCC2)N(C)C(=O)CN(C)C(=O)CN(C)C1=O ([NMeChg]I[Sar][Sar][NMeCha][Sar][hPhe(3-Cl-4-CF3)]P[Ac5c][NMeV][NMeD]-Piperidide; lactam N-11)	7.8 nM	650 nM	0.37 ×10⁻⁶ cm/s
CC[C@H](C)[C@@H]1NC(=O)[C@H](C2CCC2)N(C)C(=O)C[C@@H](C(=O)N2CCCCC2)N(C)C(=O)[C@H](C(C)C)N(C)C(=O)C2(CCCC2)NC(=O)[C@@H]2CCCN2C(=O)[C@H](CCc2ccc(C(F)(F)F)c(Cl)c2)NC(=O)CN(C)C(=O)[C@H](CC2CCCCC2)N(C)C(=O)CN(C)C(=O)CN(C)C1=O ([NMeGly(cBu)]I[Sar][Sar][NMeCha][Sar][hPhe(3-Cl-4-CF3)]P[Ac5c][NMeV][NMeD]-Piperidide; lactam N-11)	2.8 nM	130 nM	0.91 ×10⁻⁶ cm/s
CC[C@H](C)[C@@H]1NC(=O)[C@H](C2CCCC2)N(C)C(=O)C[C@@H](C(=O)N2CCCCC2)N(C)C(=O)[C@H](C(C)C)N(C)C(=O)C2(CCCC2)NC(=O)[C@@H]2CCCN2C(=O)[C@H](CCc2ccc(C(F)(F)F)c(Cl)c2)NC(=O)CN(C)C(=O)[C@H](CC2CCCCC2)N(C)C(=O)CN(C)C(=O)CN(C)C1=O ([NMeGly(cPent)]I[Sar][Sar][NMeCha][Sar][hPhe(3-Cl-4-CF3)]P[Ac5c][NMeV][NMeD]-Piperidide; lactam N-11)	4.3 nM	210 nM	0.75 ×10⁻⁶ cm/s
CC[C@H](C)[C@@H]1NC(=O)[C@H](CC(C)C)N(C)C(=O)C[C@@H](C(=O)N2CCCCC2)N(C)C(=O)[C@H](CC2CCCCC2)N(C)C(=O)C2(CCCC2)NC(=O)[C@@H]2CCCN2C(=O)[C@H](CCc2ccc(C(F)(F)F)c(Cl)c2)NC(=O)CN(C)C(=O)[C@H](CC2CCCCC2)N(C)C(=O)[C@@H]2CCN2C(=O)[C@H](C)N(C)C1=O ([NMeL]I[NMeA][Aze][NMeCha][Sar][hPhe(3-Cl-4-CF3)]P[Ac5c][NMeCha][NMeD]-Piperidide; lactam N-11)	45 nM	30000 nM	–
CC[C@H](C)[C@@H]1NC(=O)[C@H](CC(C)C)N(C)C(=O)C[C@@H](C(=O)N2CCCCC2)N(C)C(=O)[C@H](CC(C)C)N(C)C(=O)C2(CCCC2)NC(=O)[C@@H]2CCCN2C(=O)[C@H](CCc2ccc(C(F)(F)F)c(Cl)c2)NC(=O)CN(C)C(=O)[C@H](CC2CCCCC2)N(C)C(=O)[C@@H]2CCN2C(=O)[C@H](C)N(C)C1=O ([NMeL]I[NMeA][Aze][NMeCha][Sar][hPhe(3-Cl-4-CF3)]P[Ac5c][NMeL][NMeD]-Piperidide; lactam N-11)	3.9 nM	240 nM	–
CCC[C@H]1C(=O)N(C)[C@H](C(=O)N2CCCCC2)CC(=O)N(C)[C@@H](CC(C)C)C(=O)N[C@@H]([C@@H](C)CC)C(=O)N(C)[C@@H](C)C(=O)N2CC[C@H]2C(=O)N(C)[C@@H](CC2CCCCC2)C(=O)N(C)CC(=O)N[C@@H](CCc2ccc(C(F)(F)F)c(Cl)c2)C(=O)N2CCC[C@H]2C(=O)NC2(CCCC2)C(=O)N1C ([NMeL]I[NMeA][Aze][NMeCha][Sar][hPhe(3-Cl-4-CF3)]P[Ac5c][NMeNva][NMeD]-Piperidide; lactam N-11)	5.7 nM	310 nM	–
CC[C@H](C)[C@@H]1NC(=O)[C@H](C)N(C)C(=O)C[C@@H](C(=O)n2cccc2)NC(=O)[C@H](C)N(C)C(=O)[C@H](Cc2ccccc2)N(C)C(=O)[C@H](Cc2ccccc2)NC(=O)[C@H](Cc2cccc(Cl)c2)NC(=O)CN(C)C(=O)[C@H](Cc2ccc(Cl)cc2)N(C)C(=O)CN(C)C(=O)CN(C)C1=O (cyclo(F[NMeF][NMeA][X1][NMeA]I[Sar][Sar][NMePhe(4-Cl)][Sar][Phe(3-Cl)]))	> 5000 nM	–	0.1 ×10⁻⁶ cm/s
CC[C@H](C)[C@@H]1NC(=O)[C@H](C)N(C)C(=O)C[C@@H](C(=O)n2cccc2)NC(=O)[C@H](CC2CCCCC2)N(C)C(=O)[C@H](Cc2ccccc2)N(C)C(=O)[C@H](Cc2ccccc2)NC(=O)[C@H](Cc2cccc(Cl)c2)NC(=O)CN(C)C(=O)[C@H](Cc2ccc(Cl)cc2)N(C)C(=O)CN(C)C(=O)CN(C)C1=O (cyclo(F[NMeF][NMeCha][X1][NMeA]I[Sar][Sar][NMePhe(4-Cl)][Sar][Phe(3-Cl)]))	670 nM	–	0.07 ×10⁻⁶ cm/s
CC[C@H](C)[C@@H]1NC(=O)[C@H](C)N(C)C(=O)C[C@@H](C(=O)n2cccc2)N(C)C(=O)[C@H]([C@@H](C)CC)N(C)C(=O)[C@H](Cc2ccccc2)N(C)C(=O)[C@H](Cc2ccccc2)NC(=O)[C@H](Cc2cccc(Cl)c2)NC(=O)CN(C)C(=O)[C@H](Cc2ccc(Cl)cc2)N(C)C(=O)CN(C)C(=O)CN(C)C1=O (cyclo(F[NMeF][NMeI][X2][NMeA]I[Sar][Sar][NMePhe(4-Cl)][Sar][Phe(3-Cl)]))	87 nM	–	0.09 ×10⁻⁶ cm/s
CCCC[C@H]1C(=O)N(C)[C@H](C(=O)n2cccc2)CC(=O)N(C)[C@@H](C)C(=O)N[C@@H]([C@@H](C)CC)C(=O)N(C)CC(=O)N(C)CC(=O)N(C)[C@@H](Cc2ccc(Cl)cc2)C(=O)N(C)CC(=O)N[C@@H](Cc2cccc(Cl)c2)C(=O)N[C@@H](Cc2ccccc2)C(=O)N(C)[C@@H](Cc2ccccc2)C(=O)N1C (cyclo(F[NMeF][NMeNle][X2][NMeA]I[Sar][Sar][NMePhe(4-Cl)][Sar][Phe(3-Cl)]))	270 nM	–	0.09 ×10⁻⁶ cm/s
CCC[C@H]1C(=O)N(C)[C@H](C(=O)n2cccc2)CC(=O)N(C)[C@@H](C)C(=O)N[C@@H]([C@@H](C)CC)C(=O)N(C)CC(=O)N(C)CC(=O)N(C)[C@@H](Cc2ccc(Cl)cc2)C(=O)N(C)CC(=O)N[C@@H](Cc2cccc(Cl)c2)C(=O)N[C@@H](Cc2ccccc2)C(=O)N(C)[C@@H](Cc2ccccc2)C(=O)N1C (cyclo(F[NMeF][NMeNva][X2][NMeA]I[Sar][Sar][NMePhe(4-Cl)][Sar][Phe(3-Cl)]))	97 nM	–	0.14 ×10⁻⁶ cm/s
CC[C@H](C)[C@@H]1NC(=O)[C@H](C)N(C)C(=O)C[C@@H](C(=O)n2cccc2)N(C)C(=O)[C@H](C(C)C)N(C)C(=O)[C@H](Cc2ccccc2)N(C)C(=O)[C@H](Cc2ccccc2)NC(=O)[C@H](Cc2cccc(Cl)c2)NC(=O)CN(C)C(=O)[C@H](Cc2ccc(Cl)cc2)N(C)C(=O)CN(C)C(=O)CN(C)C1=O (cyclo(F[NMeF][NMeV][X2][NMeA]I[Sar][Sar][NMePhe(4-Cl)][Sar][Phe(3-Cl)]))	70 nM	–	0.11 ×10⁻⁶ cm/s
